Reference: article PMC5137160, “Optical imaging of MMP-12 active form in inflammation and aneurysm” (Scientific Reports, 2016)

Key:
hMMP-12 = experiment: MMP inhibition assay (Ki); type: biochemical, human
Method: (§1) Human MMP-8, -9, -12 and -13 were produced in the laboratory. Other MMPs were purchased from R&D Systems (Minneapolis, MN). MMP inhibition assays were carried out as previously described. Pro-MMPs were pre-activated by p-aminophenylmercuric acetate following the method described by R&D Systems. Titration experiments were carried out to determine active enzyme concentration for each MMP prior to the assay. For each probe, the percentage of inhibition was determined from five different concentrations in triplicates, chosen to reach a range of 20–80% inhibition. Ki values were determined using the method proposed by Horovitz and Leviski[45].

TACE = TACE (Homo sapiens, UniProt P78536); experiment: Metalloprotease inhibition assay (Ki); type: biochemical
MMP-12 [1] = system: MMP-12; parameters: method as in PMID 21212406; details: high fat-fed apoE-/- mice ref 3; cited from earlier work
ADAMTS-5 = target: T1, ADAMTS-5 (Homo sapiens, UniProt Q9UNA0); experiment: Metalloprotease inhibition assay (Ki); type: biochemical
T1 sequence (Q9UNA0 262-930): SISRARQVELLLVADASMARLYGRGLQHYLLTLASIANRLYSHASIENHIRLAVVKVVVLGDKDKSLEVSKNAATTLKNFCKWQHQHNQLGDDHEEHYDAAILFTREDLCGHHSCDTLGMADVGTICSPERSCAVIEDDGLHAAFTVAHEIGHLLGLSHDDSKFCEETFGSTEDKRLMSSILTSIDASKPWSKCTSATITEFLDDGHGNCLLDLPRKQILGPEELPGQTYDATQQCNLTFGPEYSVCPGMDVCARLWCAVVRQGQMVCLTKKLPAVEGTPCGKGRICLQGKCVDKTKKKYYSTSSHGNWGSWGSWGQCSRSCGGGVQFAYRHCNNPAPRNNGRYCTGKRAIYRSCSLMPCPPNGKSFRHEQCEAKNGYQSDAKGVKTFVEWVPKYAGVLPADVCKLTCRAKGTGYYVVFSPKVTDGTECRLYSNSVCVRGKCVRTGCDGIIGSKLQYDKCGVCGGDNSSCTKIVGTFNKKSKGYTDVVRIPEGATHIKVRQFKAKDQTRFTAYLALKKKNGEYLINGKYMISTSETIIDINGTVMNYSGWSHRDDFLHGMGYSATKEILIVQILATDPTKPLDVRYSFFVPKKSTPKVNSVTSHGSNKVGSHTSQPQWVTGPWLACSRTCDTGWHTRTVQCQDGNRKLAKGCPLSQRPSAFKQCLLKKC

hMMP-10 = target: T2, hMMP-10 (Homo sapiens, UniProt P09238); experiment: MMP inhibition assay (Ki); type: biochemical
T2 construct: purchased R&D Systems (Minneapolis, MN)
Method: as §1

hMMP-14 = target: T3, hMMP-14 (Homo sapiens, UniProt P50281); experiment: MMP inhibition assay (Ki); type: biochemical
T3 construct: purchased R&D Systems (Minneapolis, MN)
Method: as §1

hMMP-1 = target: T4, hMMP-1 (Homo sapiens, UniProt P03956); experiment: MMP inhibition assay (Ki); type: biochemical
T4 construct: purchased R&D Systems (Minneapolis, MN)
T4 sequence (P03956 100-469): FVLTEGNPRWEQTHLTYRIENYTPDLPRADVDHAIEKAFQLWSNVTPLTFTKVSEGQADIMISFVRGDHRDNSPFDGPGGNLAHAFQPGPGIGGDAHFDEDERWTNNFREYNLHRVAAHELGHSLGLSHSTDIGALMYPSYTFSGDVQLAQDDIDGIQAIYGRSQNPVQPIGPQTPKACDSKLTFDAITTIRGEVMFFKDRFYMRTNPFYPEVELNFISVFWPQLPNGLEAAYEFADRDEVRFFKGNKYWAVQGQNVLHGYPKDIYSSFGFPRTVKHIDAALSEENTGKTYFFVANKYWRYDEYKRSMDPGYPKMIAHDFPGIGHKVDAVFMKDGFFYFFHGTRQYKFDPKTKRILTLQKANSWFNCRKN
Method: as §1

hMMP-7 = target: T5, hMMP-7 (Homo sapiens, UniProt P09237); experiment: MMP inhibition assay (Ki); type: biochemical
T5 construct: purchased R&D Systems (Minneapolis, MN)
T5 sequence (P09237 95-267): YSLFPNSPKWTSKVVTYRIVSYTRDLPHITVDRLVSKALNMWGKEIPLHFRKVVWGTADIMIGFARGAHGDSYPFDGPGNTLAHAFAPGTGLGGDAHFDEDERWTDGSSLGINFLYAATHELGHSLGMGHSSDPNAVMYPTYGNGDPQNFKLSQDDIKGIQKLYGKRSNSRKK
Method: as §1

hMMP-9 = target: T6, hMMP-9 (Homo sapiens, UniProt P14780); experiment: MMP inhibition assay (Ki); type: biochemical
T6 construct: made in house
Method: as §1

hMMP-3 = target: T7, hMMP-3 (Homo sapiens, UniProt P08254); experiment: MMP inhibition assay (Ki); type: biochemical
T7 construct: purchased R&D Systems (Minneapolis, MN)
Method: as §1

hMMP-2 = target: T8, hMMP-2 (Homo sapiens, UniProt P08253); experiment: MMP inhibition assay (Ki); type: biochemical
T8 construct: purchased R&D Systems (Minneapolis, MN)
T8 sequence (P08253 110-660): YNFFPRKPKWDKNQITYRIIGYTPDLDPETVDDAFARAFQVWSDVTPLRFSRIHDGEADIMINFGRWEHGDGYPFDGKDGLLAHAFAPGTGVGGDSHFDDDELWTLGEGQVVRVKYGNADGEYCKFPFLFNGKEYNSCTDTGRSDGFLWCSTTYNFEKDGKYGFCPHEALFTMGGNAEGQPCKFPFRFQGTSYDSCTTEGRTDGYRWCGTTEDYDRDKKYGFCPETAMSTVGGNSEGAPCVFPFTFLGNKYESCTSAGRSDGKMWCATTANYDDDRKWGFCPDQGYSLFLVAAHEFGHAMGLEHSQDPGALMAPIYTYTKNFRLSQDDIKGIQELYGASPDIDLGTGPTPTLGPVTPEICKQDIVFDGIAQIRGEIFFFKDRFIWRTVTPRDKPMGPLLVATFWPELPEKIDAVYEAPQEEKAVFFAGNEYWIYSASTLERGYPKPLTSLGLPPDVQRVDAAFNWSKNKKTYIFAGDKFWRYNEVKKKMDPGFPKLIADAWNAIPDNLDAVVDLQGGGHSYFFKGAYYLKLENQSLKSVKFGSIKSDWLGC
Method: as §1

hMMP-8 = target: T9, hMMP-8 (Homo sapiens, UniProt P22894); experiment: MMP inhibition assay (Ki); type: biochemical
T9 construct: made in house
Method: as §1

hMMP-13 = target: T10, hMMP-13 (Homo sapiens, UniProt P45452); experiment: MMP inhibition assay (Ki); type: biochemical
T10 construct: made in house
Method: as §1

MMP-12 [2] = target: T11, MMP-12 (Mus musculus, UniProt P34960); experiment: Co-immunostaining of carotid artery sections with probe, fluorescence microscopy; parameters: species or system mice
T11 construct: from tissue; host or cells: CaCl2-induced aneurysmal left carotid artery of apoE-deficient mice (in vivo imaging and cryostat sections)
Method: Hematoxylin and eosin (H&E) staining and immunostaining of tissues were performed according to standard protocols on 5-μm-thick cryostat sections. For immunostaining, primary antibodies included anti-MMP-12 (sc-30072, Santa Cruz Biotechnology, Dallas, TX), anti-CD68 (AbD serotec, Raleigh, NC), anti-F4/80 (Cedarlane, Burlington, NC) and anti-CD31 (BD Pharmingen, San Jose, CA). Isotype-matched antibodies were used as controls. For co-immunostaining, tissue sections were fixed with acetone, and stained with the antibody followed by probe 2. Nuclei were stained with DAPI using ProLong® Gold Antifade Mountant with DAPI (Molecular Probes, Eugene, OR). The slides were photographed using a Spot RT3 camera (Diagnostic Instruments, Sterling Heights, MI) and a Zeiss Axiophot fluorescence microscope (Carl Zeiss Microscopy GmbH, Jena, Germany).

TACE, sequence (P78536 215-824): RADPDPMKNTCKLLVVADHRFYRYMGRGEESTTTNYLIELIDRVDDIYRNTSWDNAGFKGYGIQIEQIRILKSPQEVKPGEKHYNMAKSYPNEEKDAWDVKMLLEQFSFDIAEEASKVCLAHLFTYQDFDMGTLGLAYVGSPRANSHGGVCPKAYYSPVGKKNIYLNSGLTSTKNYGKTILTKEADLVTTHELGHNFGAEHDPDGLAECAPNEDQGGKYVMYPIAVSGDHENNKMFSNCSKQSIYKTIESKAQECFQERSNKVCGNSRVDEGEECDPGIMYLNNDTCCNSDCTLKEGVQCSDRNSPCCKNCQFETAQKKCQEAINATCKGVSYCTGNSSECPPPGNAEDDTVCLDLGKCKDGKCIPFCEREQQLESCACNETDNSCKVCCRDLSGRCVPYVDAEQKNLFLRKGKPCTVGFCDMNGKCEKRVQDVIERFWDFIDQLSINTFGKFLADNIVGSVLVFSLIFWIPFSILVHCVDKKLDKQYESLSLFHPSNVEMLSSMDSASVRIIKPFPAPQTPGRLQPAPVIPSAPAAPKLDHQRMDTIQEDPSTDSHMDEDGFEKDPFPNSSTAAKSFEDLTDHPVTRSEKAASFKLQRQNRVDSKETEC
T2 sequence (P09238 99-476): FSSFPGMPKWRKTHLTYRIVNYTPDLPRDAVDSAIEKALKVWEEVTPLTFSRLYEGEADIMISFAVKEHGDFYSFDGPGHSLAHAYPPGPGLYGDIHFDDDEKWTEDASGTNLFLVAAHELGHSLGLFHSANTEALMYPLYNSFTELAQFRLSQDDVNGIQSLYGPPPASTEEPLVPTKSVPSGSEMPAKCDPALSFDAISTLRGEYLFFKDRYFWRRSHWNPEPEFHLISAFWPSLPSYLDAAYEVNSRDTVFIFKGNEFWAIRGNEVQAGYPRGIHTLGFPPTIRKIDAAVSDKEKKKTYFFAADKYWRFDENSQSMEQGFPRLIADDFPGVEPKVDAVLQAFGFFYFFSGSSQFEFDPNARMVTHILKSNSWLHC
T7 sequence (P08254 100-477): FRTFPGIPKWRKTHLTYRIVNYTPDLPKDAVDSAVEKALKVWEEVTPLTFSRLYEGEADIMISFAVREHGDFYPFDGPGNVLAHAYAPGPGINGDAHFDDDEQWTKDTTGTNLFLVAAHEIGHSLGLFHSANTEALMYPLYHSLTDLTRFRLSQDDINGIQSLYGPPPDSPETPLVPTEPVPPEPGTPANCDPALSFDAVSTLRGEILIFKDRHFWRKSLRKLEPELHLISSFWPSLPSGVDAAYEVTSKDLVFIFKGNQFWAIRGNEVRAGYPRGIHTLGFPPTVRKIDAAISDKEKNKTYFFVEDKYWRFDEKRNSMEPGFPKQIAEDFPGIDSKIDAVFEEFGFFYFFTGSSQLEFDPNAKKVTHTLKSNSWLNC
T9 sequence (P22894 101-467): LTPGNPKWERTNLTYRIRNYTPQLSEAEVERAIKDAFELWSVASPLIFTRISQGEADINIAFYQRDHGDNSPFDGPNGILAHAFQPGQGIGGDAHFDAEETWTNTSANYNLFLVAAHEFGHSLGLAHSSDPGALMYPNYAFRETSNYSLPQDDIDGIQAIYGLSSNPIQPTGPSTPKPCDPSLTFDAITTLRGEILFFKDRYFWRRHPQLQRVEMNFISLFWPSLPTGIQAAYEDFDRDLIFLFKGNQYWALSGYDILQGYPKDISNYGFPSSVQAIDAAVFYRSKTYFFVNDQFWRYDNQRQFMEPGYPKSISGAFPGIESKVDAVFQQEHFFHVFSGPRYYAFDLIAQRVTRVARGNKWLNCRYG
T6 sequence (P14780 94-707): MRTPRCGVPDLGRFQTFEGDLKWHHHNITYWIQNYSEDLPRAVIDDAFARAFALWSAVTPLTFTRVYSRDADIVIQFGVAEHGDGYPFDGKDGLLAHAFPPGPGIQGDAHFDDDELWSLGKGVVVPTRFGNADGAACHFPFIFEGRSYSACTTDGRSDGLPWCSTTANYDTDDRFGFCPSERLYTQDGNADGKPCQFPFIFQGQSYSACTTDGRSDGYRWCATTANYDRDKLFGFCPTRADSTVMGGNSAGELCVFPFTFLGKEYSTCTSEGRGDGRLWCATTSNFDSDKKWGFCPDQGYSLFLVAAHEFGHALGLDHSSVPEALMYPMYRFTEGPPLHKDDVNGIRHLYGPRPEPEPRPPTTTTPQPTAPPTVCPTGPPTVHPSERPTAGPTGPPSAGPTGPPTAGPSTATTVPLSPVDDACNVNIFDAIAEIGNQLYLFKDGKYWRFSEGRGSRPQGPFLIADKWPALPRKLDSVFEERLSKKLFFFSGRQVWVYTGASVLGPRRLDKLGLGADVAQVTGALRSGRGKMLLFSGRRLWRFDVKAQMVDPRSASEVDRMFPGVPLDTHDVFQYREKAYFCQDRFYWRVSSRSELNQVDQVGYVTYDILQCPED
T11 sequence (P34960 110-473): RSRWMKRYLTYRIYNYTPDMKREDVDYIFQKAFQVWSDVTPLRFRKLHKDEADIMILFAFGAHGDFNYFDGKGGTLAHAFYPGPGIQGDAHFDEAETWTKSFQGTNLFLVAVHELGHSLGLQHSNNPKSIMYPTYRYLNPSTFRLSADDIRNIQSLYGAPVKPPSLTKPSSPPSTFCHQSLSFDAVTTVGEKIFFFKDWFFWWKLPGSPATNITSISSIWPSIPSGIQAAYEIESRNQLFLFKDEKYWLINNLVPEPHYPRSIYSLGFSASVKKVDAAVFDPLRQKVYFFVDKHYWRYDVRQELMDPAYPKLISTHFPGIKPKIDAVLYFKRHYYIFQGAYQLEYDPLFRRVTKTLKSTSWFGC

| Structure (SMILES) | Ki (hMMP-12) | Ki (TACE) | effect on atherosclerotic plaque (MMP-12 [1]) | Ki (ADAMTS-5) | Ki (hMMP-10) | Ki (hMMP-14) | Ki (hMMP-1) | Ki (hMMP-7) | Ki (hMMP-9) | Ki (hMMP-3) | Ki (hMMP-2) | Ki (hMMP-8) | Ki (hMMP-13) | difference in potency towards MMP-12, factor relative to probe 1 (hMMP-12; relative to probe 1) | probe co-localization with F4/80 positive cells (MMP-12 [2]; aneurysmal carotid artery sections) | probe signal co-localization with MMP-12 (MMP-12 [2]; aneurysmal left carotid artery sections) | loss of potency (drop in affinity) toward MMP-9 compared with RXP470.1 (hMMP-9; factor relative to RXP470.1) | loss of potency toward MMP-10 compared with RXP470.1 (hMMP-10; relative to RXP470.1) | loss of potency toward MMP-13 compared with RXP470.1 (hMMP-13; relative to RXP470.1) |
| --- | --- | --- | --- | --- | --- | --- | --- | --- | --- | --- | --- | --- | --- | --- | --- | --- | --- | --- | --- |
| NC(=O)[C@H](CCC(=O)O)NC(=O)[C@H](CCC(=O)O)NC(=O)[C@H](Cc1cc(-c2ccc(-c3cccc(Cl)c3)cc2)no1)CP(=O)(O)c1ccc(Br)cc1 [RXP470.1, reference compound] | 0.26 nM | > 10000 nM | reduces atherosclerotic plaque area and promotes a fibrous plaque phenotype | 6100 ± 100 nM | 17 ± 20 nM | 150 ± 21 nM | > 10000 nM | 518 ± 40 nM | 170 ± 50 nM | 80 ± 2 nM | 52 ± 4 nM | 120 ± 40 nM | 11 ± 10 nM |  |  |  |  |  |  |
| CC[N+]1=C(/C=C/C=C2/N(CCCCCC(=O)NCCCOCCOCCOCCCNC(=O)[C@H](CCC(=O)O)NC(=O)[C@H](CCC(=O)O)NC(=O)[C@H](Cc3cc(-c4ccc(-c5cccc(Cl)c5)cc4)no3)CP(=O)(O)c3ccc(Br)cc3)c3ccc(S(=O)(=O)[O-])cc3C2(C)C)C(C)(C)c2cc(S(=O)(=O)O)ccc21 [probe 2] | 6.1 ± 0.1 nM | > 10000 nM |  | > 10000 nM |  | 802 ± 58 nM | 7212 ± 66 nM | 1850 ± 71 nM | 8760 ± 50 nM | 188 ± 22 nM | 1070 ± 18 nM | 1440 ± 35 nM | 136 ± 15 nM | 7 | co-localized | partially co-localized | 50 |  |  |
| CC[N+]1=C(/C=C/C=C/C=C2/N(CCCCCC(=O)NCCCOCCOCCOCCCNC(=O)[C@H](CCC(=O)O)NC(=O)[C@H](CCC(=O)O)NC(=O)[C@H](Cc3cc(-c4ccc(-c5cccc(Cl)c5)cc4)no3)CP(=O)(O)c3ccc(Br)cc3)c3ccc4c(S(=O)(=O)[O-])cc(S(=O)(=O)O)cc4c3C2(C)C)C(C)(C)c2c1ccc1c(S(=O)(=O)O)cc(S(=O)(=O)O)cc21 [probe 1] | 0.9 nM | > 10000 nM |  | 1490 ± 129 nM | 71 ± 50 nM | 1130 ± 61 nM | > 10000 nM | 1623 ± 13 nM | 4167 ± 41 nM | 31 ± 2 nM | 973 ± 63 nM | 2070 ± 22 nM | 74 ± 70 nM |  |  |  |  | less than ten times | less than ten times |
